The record followed here is ChEMBL document CHEMBL1201862, “PubChem BioAssay data set” (2004).

Among the test systems are 786-0; DLD-1; DMS-114; EKVX; HCT-15; HOP-92; HT-29; IGROV-1; KM-20L2; KM12; NCI-H522; SF-539; SK-OV-3; SNB-75; SW-620; UO-31.
What all share (experiment): NCI-60 cell line screen, 48 h

SMILES strings stand for the structures.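 Briefly, cells in 96-well plates were exposed to five compound concentrations for 48 h, and endpoints were estimated by linear interpolation. GI50 marks 50% less growth.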 Active and inactive are the calls of the source. No stated cut-off is given here; in the data, active = GI50 up to about 1.1 µM and inactive = higher. Bounds are passed on as bounds.

Turning to `O=C(c1cccc2ccccc12)N1CCC(C2CCN(C(=O)c3cccc4ccccc34)CC2)CC1`, the GI50 with 786-0 was > 100 µM (inactive); in the assay with DLD-1 it was > 100 µM (inactive); in the assay with DMS-114 it was > 100 µM (inactive); in the assay with EKVX it was > 100 µM (inactive); in the assay with HCT-15, more than 100 µM; in the assay with HOP-92, > 100 µM (inactive). The GI50 in the assay on HT-29, in the assay on IGROV-1, in the assay on KM-20L2, with KM12, in the assay with NCI-H522 and in the assay on SF-539 was > 100 µM (inactive) each time. Also, the GI50 with SK-OV-3 is > 100 µM (inactive); in the assay with SNB-75, 23.8 µM (inactive); in the assay on SW-620 it was > 100 µM (inactive); in the assay with UO-31, > 100 µM (inactive).

With `CC(=O)N1CCN(C=S)CC1`, the GI50 in the assay with 786-0 was > 100 µM (inactive); with DLD-1, > 100 µM (inactive); with DMS-114, > 100 µM (inactive); in the assay on EKVX, > 100 µM (inactive); in the assay with HCT-15 it was more than 100 µM; in the assay with HOP-92, > 100 µM (inactive). The GI50 with HT-29, in the assay with IGROV-1, in the assay with KM-20L2, in the assay with KM12, with NCI-H522 and with SF-539 was > 100 µM (inactive) throughout. The GI50 in the assay on SK-OV-3, with SNB-75, in the assay on SW-620 and with UO-31 was > 100 µM (inactive) throughout.

Turning to `O=C1[C@@H]2C3C=CC([C@H]4C(=O)N(CO)C(=O)[C@@H]34)[C@@H]2C(=O)N1CO`, the GI50 in the assay with 786-0 was 41.8 µM (inactive); with DLD-1, 48.5 µM (inactive); in the assay on DMS-114, 32.1 µM (inactive); with EKVX, > 100 µM (inactive); in the assay with HCT-15 it was 25.4 µM; in the assay on HOP-92, > 78.2 µM (inactive). Moreover, the GI50 in the assay with HT-29 is 62.8 µM (inactive); in the assay with IGROV-1, > 100 µM (inactive); with KM-20L2 it was > 31.6 µM (inactive); with KM12 it was > 64.7 µM (inactive); in the assay with NCI-H522 it was 34.8 µM (inactive); in the assay with SF-539, 47.3 µM (inactive). Besides, the GI50 is > 100 µM (inactive) in the assay with SK-OV-3, > 78.2 µM (inactive) in the assay with SNB-75, 26.1 µM (inactive) with SW-620 and > 65.3 µM (inactive) in the assay on UO-31.

In the case of `O=C1CC(O)C=C1Nc1ccc(Cl)cc1` (configuration not stated), the GI50 with 786-0 is 58.2 µM (inactive); in the assay on DLD-1, 22.3 µM (inactive); in the assay with DMS-114, 26.4 µM (inactive); in the assay with EKVX, 27.7 µM (inactive); in the assay with HOP-92, 49.1 µM (inactive); in the assay on HT-29 it was 13.7 µM (inactive). In addition, the GI50 with IGROV-1 was 43.1 µM (inactive); with KM-20L2, 0.708 µM (active); in the assay with KM12 it was 13.4 µM (inactive); in the assay on NCI-H522 it was 11.2 µM (inactive); with SF-539 it was 61.7 µM (inactive); in the assay on SK-OV-3, > 100 µM (inactive). Moreover, the results for the GI50 in the assay with SNB-75, with SW-620 and with UO-31 were 26.5 µM (inactive), 34.1 µM (inactive) and 31.3 µM (inactive), respectively.

As for `c1ccc2c(c1)N=C(c1cccc3ccccc13)CC(c1cccc3ccccc13)S2` (configuration not stated), the GI50 in the assay on 786-0 is 3.8 µM (inactive); in the assay with DLD-1 it was 3.6 µM (inactive); with DMS-114 it was 2.74 µM (inactive); in the assay on EKVX, 14 µM (inactive); with HCT-15 it was 4.26 µM; in the assay with HT-29, 3.33 µM (inactive). For the same compound, the GI50 in the assay with IGROV-1 was 5.68 µM (inactive); in the assay on KM-20L2 it was 3.24 µM (inactive); with KM12, 2.91 µM (inactive); in the assay with NCI-H522 it was 2.54 µM (inactive); in the assay with SF-539, 4.92 µM (inactive); in the assay with SK-OV-3, 10.3 µM (inactive). The GI50 was 5.83 µM (inactive) in the assay with SNB-75, 2.56 µM (inactive) with SW-620 and 11.2 µM (inactive) with UO-31.

Turning to `COC(=O)CC(=O)OC`, the GI50 in the assay on 786-0 is > 100 µM (inactive); with DLD-1, > 100 µM (inactive); in the assay with DMS-114, > 100 µM (inactive); in the assay on EKVX it was > 100 µM (inactive); in the assay with HCT-15, more than 100 µM; in the assay on HOP-92 it was > 100 µM (inactive). Further, the GI50 in the assay on HT-29, in the assay on IGROV-1, in the assay with KM-20L2, in the assay with KM12, in the assay on SF-539 and in the assay on SK-OV-3 was > 100 µM (inactive) in each case. Also, the GI50 in the assay on SNB-75, with SW-620 and in the assay with UO-31 was > 100 µM (inactive) each time.

`CCOC(=O)c1[nH]c2c(OC)n[n+]([O-])cc2c1[N+](=O)[O-]`: the GI50 with 786-0 was 16.4 µM (inactive); in the assay with DLD-1, 17.2 µM (inactive); with DMS-114 it was 22.2 µM (inactive); in the assay on EKVX it was 21.3 µM (inactive); with HCT-15, 18.4 µM; in the assay on HT-29, 15.9 µM (inactive). Further, the GI50 in the assay on IGROV-1 was 54.8 µM (inactive); in the assay on KM-20L2, 15.5 µM (inactive); in the assay on KM12, 15 µM (inactive); in the assay on NCI-H522, 19.3 µM (inactive); in the assay with SF-539, 27.9 µM (inactive); with SK-OV-3 it was > 100 µM (inactive). Moreover, the GI50 with SNB-75 was 9.23 µM (inactive); in the assay on SW-620 it was 15.7 µM (inactive); in the assay with UO-31, 22 µM (inactive).

Regarding `CN(C(=O)C12C3C4C5C3C1(C(=O)C13C6C7C8C6C1C8C73)C5C42)C(C)(C)C` (configuration not stated), the GI50 in the assay on 786-0 is > 50 µM (inactive); in the assay on DLD-1, > 23.2 µM (inactive); with DMS-114, > 23.6 µM (inactive); in the assay on EKVX, > 50 µM (inactive); in the assay with HCT-15, more than 21.3 µM; with HOP-92, > 50 µM (inactive). The GI50 was > 37.8 µM (inactive) in the assay with HT-29; > 50 µM (inactive) in the assay on IGROV-1; > 50 µM (inactive) in the assay with KM-20L2; > 50 µM (inactive) in the assay on KM12; > 32.4 µM (inactive) in the assay on NCI-H522; > 50 µM (inactive) in the assay with SF-539. For the same compound, the GI50 is > 50 µM (inactive) with SK-OV-3, > 33 µM (inactive) in the assay on SNB-75, > 20.9 µM (inactive) in the assay on SW-620 and > 50 µM (inactive) with UO-31.

As to `Clc1ccc(C2=Nc3ccccc3SC(c3ccc(Cl)c(Cl)c3)C2)c(Cl)c1` (configuration not stated), the GI50 in the assay on 786-0 is 14.5 µM (inactive); in the assay with DLD-1 it was 12.6 µM (inactive); in the assay with DMS-114, 9.89 µM (inactive); in the assay on EKVX, 16.4 µM (inactive); in the assay on HCT-15, 9.71 µM; in the assay on HOP-92, 13.8 µM (inactive). Further, the GI50 was 11.4 µM (inactive) in the assay on HT-29; 14.7 µM (inactive) in the assay on IGROV-1; 18.3 µM (inactive) with KM-20L2; 7.08 µM (inactive) in the assay with KM12; 13.5 µM (inactive) in the assay on NCI-H522; 17.7 µM (inactive) with SF-539. The GI50 in the assay on SK-OV-3 is 28.1 µM (inactive); in the assay on SNB-75, 15.4 µM (inactive); in the assay on SW-620 it was 6.9 µM (inactive); in the assay with UO-31 it was 14.4 µM (inactive).

On to `O=C1[C@@H]2C(c3cccc([N+](=O)[O-])c3)=NO[C@@H]2C(=O)N1c1ccc(Cc2ccc(N3C(=O)[C@H]4C(c5cccc([N+](=O)[O-])c5)=NO[C@H]4C3=O)cc2)cc1`, for which the GI50 with 786-0 is 91 µM (inactive); with DLD-1, > 100 µM (inactive); in the assay with DMS-114, > 100 µM (inactive); with HCT-15, more than 100 µM; in the assay with HOP-92, > 100 µM (inactive); in the assay on HT-29 it was > 100 µM (inactive). In addition, the GI50 in the assay on IGROV-1 was > 100 µM (inactive); in the assay on KM-20L2, > 100 µM (inactive); in the assay on KM12 it was > 10 µM (inactive); in the assay on NCI-H522, > 100 µM (inactive); with SF-539 it was 35.9 µM (inactive); with SK-OV-3 it was > 10 µM (inactive). The GI50 in the assay with SNB-75, in the assay with SW-620 and in the assay on UO-31 was > 100 µM (inactive) in each case.

With `Clc1ccc(SCCCCCCCCCCSc2ccc(Cl)cc2)cc1`, the GI50 was > 55.6 µM (inactive) in the assay on 786-0; > 100 µM (inactive) in the assay on DLD-1; > 100 µM (inactive) with DMS-114; > 70 µM (inactive) in the assay on EKVX; more than 54.2 µM in the assay on HCT-15; > 100 µM (inactive) in the assay with HOP-92. For the same compound, the GI50 with HT-29 is > 100 µM (inactive); in the assay on IGROV-1, > 100 µM (inactive); in the assay with KM-20L2 it was > 63.7 µM (inactive); in the assay on KM12, > 55.1 µM (inactive); with NCI-H522 it was > 100 µM (inactive); in the assay with SF-539, > 100 µM (inactive). The GI50 with SK-OV-3 was > 100 µM (inactive); in the assay with SNB-75, > 100 µM (inactive); in the assay with SW-620, 37.5 µM (inactive); in the assay on UO-31 it was > 100 µM (inactive).

Regarding `C[C@H]1C(=O)CC[C@]2(C)CCC(C(C)(C)O)CC12O` (some centres not stated), the GI50 was > 100 µM (inactive) in the assay on 786-0; > 100 µM (inactive) in the assay with DLD-1; > 100 µM (inactive) with DMS-114; > 100 µM (inactive) in the assay with EKVX; more than 100 µM in the assay on HCT-15; > 100 µM (inactive) in the assay on HOP-92. Besides, the GI50 in the assay with HT-29, in the assay with IGROV-1, with KM-20L2, in the assay on KM12, with NCI-H522 and in the assay on SF-539 was > 100 µM (inactive) in each case. The GI50 is > 100 µM (inactive) in the assay on SK-OV-3, 12.8 µM (inactive) with SNB-75, > 100 µM (inactive) with SW-620 and > 100 µM (inactive) with UO-31.

In the case of `CC1(C)C(=NNC(=O)C[N+](C)(C)C)C(C)(C)C1=NNC(=O)C[N+](C)(C)C`, the GI50 in the assay on 786-0 is > 100 µM (inactive); in the assay on DLD-1 it was > 100 µM (inactive); in the assay with DMS-114 it was > 100 µM (inactive); in the assay with EKVX, > 100 µM (inactive); with HCT-15 it was more than 100 µM; in the assay on HOP-92, > 100 µM (inactive). Moreover, the GI50 in the assay with HT-29 was > 100 µM (inactive); in the assay with IGROV-1, > 100 µM (inactive); in the assay on KM-20L2 it was > 100 µM (inactive); with KM12, > 100 µM (inactive); in the assay on NCI-H522, 82.4 µM (inactive); in the assay on SF-539, > 100 µM (inactive). Moreover, the GI50 with SK-OV-3, with SNB-75 and in the assay with UO-31 was > 100 µM (inactive) each time.
